Source: ChEMBL document CHEMBL1909046, “DrugMatrix in vitro pharmacology data”
Where a SMILES comes first, the peptide text is derived from it. Bridges are numbered along the chain shown (N, C = ends). [ ]: non-standard residue; d: D form. The star is where a group is joined. Threoninol(2S,3R) = C[C@@H](O)[C@H](CO)N*

Tests used:
Substance-K receptor = molecular target: T1, Substance-K receptor (Homo sapiens, UniProt P21452); assay type: cell membranes, CHO, Membrane; conditions: cho; further: in other assays of this panel Not Active means under 50% inhibition at 10 µM
T1 sequence (P21452 whole entry): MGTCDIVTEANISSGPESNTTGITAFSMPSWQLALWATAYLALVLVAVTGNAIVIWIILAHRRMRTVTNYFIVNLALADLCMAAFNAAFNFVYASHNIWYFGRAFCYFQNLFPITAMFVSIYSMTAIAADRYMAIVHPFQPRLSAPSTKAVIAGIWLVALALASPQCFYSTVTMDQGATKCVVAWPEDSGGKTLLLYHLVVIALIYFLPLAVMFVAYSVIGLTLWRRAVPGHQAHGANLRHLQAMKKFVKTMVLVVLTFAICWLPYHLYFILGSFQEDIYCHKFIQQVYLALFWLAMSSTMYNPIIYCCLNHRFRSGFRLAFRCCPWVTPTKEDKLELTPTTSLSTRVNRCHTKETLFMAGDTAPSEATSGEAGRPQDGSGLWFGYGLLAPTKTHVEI

Cannabinoid receptor 1 = Cannabinoid receptor 1 (Homo sapiens, UniProt P21554); assay type: cell membranes, Chem-1, Membrane; conditions: chem-1; further: in other assays of this panel Not Active means under 50% inhibition at 10 µM
Sequence of Cannabinoid receptor 1 (P21554 whole entry): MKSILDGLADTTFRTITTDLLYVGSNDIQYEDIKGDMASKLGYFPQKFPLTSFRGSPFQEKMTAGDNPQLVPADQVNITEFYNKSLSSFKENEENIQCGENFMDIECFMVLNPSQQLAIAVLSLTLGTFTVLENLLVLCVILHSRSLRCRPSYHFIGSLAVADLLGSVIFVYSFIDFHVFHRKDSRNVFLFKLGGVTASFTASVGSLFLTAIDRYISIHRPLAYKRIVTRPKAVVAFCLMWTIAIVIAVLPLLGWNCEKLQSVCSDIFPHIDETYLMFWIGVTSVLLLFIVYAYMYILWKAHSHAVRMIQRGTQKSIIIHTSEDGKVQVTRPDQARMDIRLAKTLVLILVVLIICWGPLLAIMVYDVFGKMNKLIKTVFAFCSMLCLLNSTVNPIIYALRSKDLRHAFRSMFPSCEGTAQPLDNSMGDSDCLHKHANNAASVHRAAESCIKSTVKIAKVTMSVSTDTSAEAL

Melanocortin receptor 3 = Melanocortin receptor 3 (Homo sapiens, UniProt P41968); assay type: cell membranes, Membrane; conditions: hek293; further: in other assays of this panel Not Active means under 50% inhibition at 10 µM
Sequence of Melanocortin receptor 3 (P41968 whole entry): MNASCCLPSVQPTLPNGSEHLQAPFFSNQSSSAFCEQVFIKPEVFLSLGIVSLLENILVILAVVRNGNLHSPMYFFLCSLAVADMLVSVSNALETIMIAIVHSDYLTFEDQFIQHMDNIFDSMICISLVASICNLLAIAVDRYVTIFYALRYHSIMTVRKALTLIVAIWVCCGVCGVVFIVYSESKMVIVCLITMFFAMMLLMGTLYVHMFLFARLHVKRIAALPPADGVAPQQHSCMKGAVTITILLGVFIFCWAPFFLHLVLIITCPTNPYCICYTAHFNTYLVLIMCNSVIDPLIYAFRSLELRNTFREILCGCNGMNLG

[1] = molecular target: T2, Muscarinic acetylcholine receptor M2 (Homo sapiens, UniProt P08172); assay type: cell membranes, CHO-K1, Membrane; conditions: cho-k1; further: in other assays of this panel Not Active means under 50% inhibition at 10 µM
T2 sequence (P08172 whole entry): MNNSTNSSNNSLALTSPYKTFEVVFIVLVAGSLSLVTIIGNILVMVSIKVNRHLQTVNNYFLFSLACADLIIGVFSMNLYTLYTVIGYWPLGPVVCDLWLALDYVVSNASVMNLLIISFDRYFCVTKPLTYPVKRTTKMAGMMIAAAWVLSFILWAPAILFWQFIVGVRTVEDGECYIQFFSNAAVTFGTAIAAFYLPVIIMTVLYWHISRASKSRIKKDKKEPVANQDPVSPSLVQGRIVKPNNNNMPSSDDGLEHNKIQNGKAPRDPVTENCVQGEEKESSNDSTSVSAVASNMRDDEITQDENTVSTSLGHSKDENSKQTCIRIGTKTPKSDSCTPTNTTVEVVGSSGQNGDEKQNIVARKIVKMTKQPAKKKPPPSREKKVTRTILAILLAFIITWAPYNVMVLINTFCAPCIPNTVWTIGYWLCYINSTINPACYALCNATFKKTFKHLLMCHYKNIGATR

[2] = molecular target: cGMP-specific 3',5'-cyclic phosphodiesterase (Homo sapiens, UniProt O76074); assay: DRUGMATRIX: Phosphodiesterase PDE5 enzyme inhibition (substrate: [3H]cGMP + cGMP); assay type: tissue-based; conditions: platelet; Not Active = under 50% inhibition at 10 µM
Progesterone receptor = molecular target: T3, Progesterone receptor (Bos taurus, UniProt Q690N0); assay: DRUGMATRIX: Progesterone radioligand binding (ligand: [3H] R-5020); assay type: tissue-based, Uterus; conditions: Not Active = under 50% inhibition at 10 µM
T3 sequence (Q690N0 whole entry): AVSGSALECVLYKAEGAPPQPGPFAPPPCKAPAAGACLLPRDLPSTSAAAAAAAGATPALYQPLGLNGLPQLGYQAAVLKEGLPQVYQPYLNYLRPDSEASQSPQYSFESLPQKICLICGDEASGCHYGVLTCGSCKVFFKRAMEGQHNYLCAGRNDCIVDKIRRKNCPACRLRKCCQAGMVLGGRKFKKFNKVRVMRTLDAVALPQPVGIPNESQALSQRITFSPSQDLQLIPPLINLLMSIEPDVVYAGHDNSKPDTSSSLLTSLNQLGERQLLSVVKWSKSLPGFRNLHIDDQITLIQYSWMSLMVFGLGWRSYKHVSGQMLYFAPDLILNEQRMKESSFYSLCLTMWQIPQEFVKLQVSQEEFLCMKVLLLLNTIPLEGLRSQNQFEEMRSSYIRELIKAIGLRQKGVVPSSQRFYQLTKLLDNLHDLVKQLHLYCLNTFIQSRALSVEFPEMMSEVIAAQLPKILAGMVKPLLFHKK

COc1ccccc1C(=O)N1CCC(Cc2ccccc2)CC1
Not Active: IC50 (Substance-K receptor) | IC50 (Cannabinoid receptor 1) | IC50 (Melanocortin receptor 3) | IC50 [1] | IC50 [2] | IC50 (Progesterone receptor)

Cc1ccccc1C(=O)N1CCC(Cc2ccccc2)CC1
Not Active: IC50 (Substance-K receptor) | IC50 (Cannabinoid receptor 1) | IC50 (Melanocortin receptor 3) | IC50 [1] | IC50 [2] | IC50 (Progesterone receptor)

O=C1CC[C@H](N2C(=O)c3ccccc3C2=O)C(=O)N1
Not Active: IC50 (Substance-K receptor) | IC50 (Cannabinoid receptor 1) | IC50 (Melanocortin receptor 3) | IC50 [1] | IC50 [2] | IC50 (Progesterone receptor)

N=C(Nc1ccccc1)Nc1ccccc1
Not Active: IC50 (Substance-K receptor) | IC50 (Cannabinoid receptor 1) | IC50 (Melanocortin receptor 3) | IC50 [1] | IC50 [2] | IC50 (Progesterone receptor)

C[C@@H](O)[C@H](CO)NC(=O)[C@@H]1CSSC[C@H](NC(=O)[C@H](N)Cc2ccccc2)C(=O)N[C@@H](Cc2ccccc2)C(=O)N[C@H](Cc2c[nH]c3ccccc23)C(=O)N[C@@H](CCCCN)C(=O)N[C@@H]([C@@H](C)O)C(=O)N1 (H-[dF]CF[dW]KTC-{Threoninol(2S,3R)}; disulfide 2-7)
Not Active: IC50 (Substance-K receptor) | IC50 (Cannabinoid receptor 1) | IC50 (Melanocortin receptor 3) | IC50 [1] | IC50 [2] | IC50 (Progesterone receptor)

S=C=Nc1cccc2ccccc12 [1-NAPHTHYLISOTHIOCYANATE]
Not Active: IC50 (Substance-K receptor) | IC50 (Cannabinoid receptor 1) | IC50 (Melanocortin receptor 3) | IC50 [1] | IC50 [2] | IC50 (Progesterone receptor)

C[C@](O)(CS(=O)(=O)c1ccc(F)cc1)C(=O)Nc1ccc(C#N)c(C(F)(F)F)c1 [(R)-BICALUTAMIDE]
Not Active: IC50 (Substance-K receptor) | IC50 (Cannabinoid receptor 1) | IC50 (Melanocortin receptor 3) | IC50 [1] | IC50 [2] | IC50 (Progesterone receptor)

CCCC(=O)Nc1ccc(OCC(O)CNC(C)C)c(C(C)=O)c1 (configuration not stated) [ACEBUTOLOL]
Not Active: IC50 (Substance-K receptor) | IC50 (Cannabinoid receptor 1) | IC50 (Melanocortin receptor 3) | IC50 [1] | IC50 [2] | IC50 (Progesterone receptor)

CC(=O)Nc1ccc(O)cc1 [ACETAMINOPHEN]
Not Active: IC50 (Substance-K receptor) | IC50 (Cannabinoid receptor 1) | IC50 (Melanocortin receptor 3) | IC50 [1] | IC50 [2] | IC50 (Progesterone receptor)

COc1cc2c(c3oc(=O)c4c(c13)CCC4=O)[C@@H]1C=CO[C@@H]1O2 [AFLATOXIN]
Not Active: IC50 (Substance-K receptor) | Ki (Substance-K receptor) | IC50 (Cannabinoid receptor 1) | Ki (Cannabinoid receptor 1) | IC50 (Melanocortin receptor 3) | Ki (Melanocortin receptor 3) | IC50 [1] | Ki [1] | IC50 [2] | Ki [2] | IC50 (Progesterone receptor) | Ki (Progesterone receptor)

N=C(N)NC(=O)c1nc(Cl)c(N)nc1N [AMILORIDE]
Not Active: IC50 (Substance-K receptor) | IC50 (Cannabinoid receptor 1) | IC50 (Melanocortin receptor 3) | IC50 [1] | IC50 [2] | IC50 (Progesterone receptor)

Cc1cc(=O)n(-c2ccccc2)n1C [ANTIPYRINE]
Not Active: IC50 (Substance-K receptor) | IC50 (Cannabinoid receptor 1) | IC50 (Melanocortin receptor 3) | IC50 [1] | IC50 [2] | IC50 (Progesterone receptor)

CN1C(=O)COc2c(C(=O)NC3CN4CCC3CC4)cc(Cl)cc21 (configuration not stated) [AZASETRON]
Not Active: IC50 (Substance-K receptor) | IC50 (Cannabinoid receptor 1) | IC50 (Melanocortin receptor 3) | IC50 [1] | IC50 [2] | IC50 (Progesterone receptor)

C[C@H]1C[C@H]2[C@@H]3CCC4=CC(=O)C=C[C@]4(C)[C@@]3(Cl)[C@@H](O)C[C@]2(C)[C@@]1(O)C(=O)CO [BECLOMETHASONE]
Not Active: IC50 (Substance-K receptor) | IC50 (Cannabinoid receptor 1) | IC50 (Melanocortin receptor 3) | IC50 [1] | IC50 [2] | IC50 (Progesterone receptor)

CCOC(=O)[C@H](CCc1ccccc1)N[C@H]1CCc2ccccc2N(CC(=O)O)C1=O [BENAZEPRIL]
Not Active: IC50 (Substance-K receptor) | IC50 (Cannabinoid receptor 1) | IC50 (Melanocortin receptor 3) | IC50 [1] | IC50 [2] | IC50 (Progesterone receptor)

Nc1c(CC(=O)O)cccc1C(=O)c1ccc(Br)cc1 [BROMFENAC]
Not Active: IC50 (Substance-K receptor) | IC50 (Cannabinoid receptor 1) | IC50 (Melanocortin receptor 3) | IC50 [1] | IC50 [2] | IC50 (Progesterone receptor)

CCCCN1CCCCC1C(=O)Nc1c(C)cccc1C.Cl (configuration not stated) [BUPIVACAINE HYDROCHLORIDE]
Not Active: IC50 (Substance-K receptor) | IC50 (Cannabinoid receptor 1) | IC50 (Melanocortin receptor 3) | IC50 [1] | IC50 [2] | IC50 (Progesterone receptor)

O=C1CC2(CCCC2)CC(=O)N1CCCCN1CCN(c2ncccn2)CC1 [BUSPIRONE]
Not Active: IC50 (Substance-K receptor) | IC50 (Cannabinoid receptor 1) | IC50 (Melanocortin receptor 3) | IC50 [1] | IC50 [2] | IC50 (Progesterone receptor)

C[C@@]12C(=O)OC(=O)[C@]1(C)[C@H]1CC[C@@H]2O1 [CANTHARIDIN]
Not Active: IC50 (Substance-K receptor) | IC50 (Cannabinoid receptor 1) | IC50 (Melanocortin receptor 3) | IC50 [1] | IC50 [2] | IC50 (Progesterone receptor)

O=NN(CCCl)C(=O)NCCCl [CARMUSTINE]
Not Active: IC50 (Substance-K receptor) | IC50 (Cannabinoid receptor 1) | IC50 (Melanocortin receptor 3) | IC50 [1] | IC50 [2] | IC50 (Progesterone receptor)

CC1=C(C(=O)O)N2C(=O)[C@@H](NC(=O)[C@H](N)c3ccccc3)[C@H]2SC1 [CEPHALEXIN ANHYDROUS]
Not Active: IC50 (Substance-K receptor) | IC50 (Cannabinoid receptor 1) | IC50 (Melanocortin receptor 3) | IC50 [1] | IC50 [2] | IC50 (Progesterone receptor)

O=C(N[C@H](CO)[C@H](O)c1ccc([N+](=O)[O-])cc1)C(Cl)Cl [CHLORAMPHENICOL]
Not Active: IC50 (Substance-K receptor) | IC50 (Cannabinoid receptor 1) | IC50 (Melanocortin receptor 3) | IC50 [1] | IC50 [2] | IC50 (Progesterone receptor)

ClC(Cl)Cl [CHLOROFORM]
Not Active: IC50 (Substance-K receptor) | IC50 (Cannabinoid receptor 1) | IC50 (Melanocortin receptor 3) | IC50 [1] | IC50 [2] | IC50 (Progesterone receptor)

C=C1CC[C@H](O)C/C1=C/C=C1\CCC[C@]2(C)[C@@H]([C@H](C)CCCC(C)C)CC[C@@H]12 [CHOLECALCIFEROL]
Not Active: IC50 (Substance-K receptor) | IC50 (Cannabinoid receptor 1) | IC50 (Melanocortin receptor 3) | IC50 [1] | IC50 [2]

C[N+](C)(C)CCO.[Cl-] [CHOLINE CHLORIDE]
Not Active: IC50 (Substance-K receptor) | IC50 (Cannabinoid receptor 1) | IC50 (Melanocortin receptor 3) | IC50 [1] | IC50 [2] | IC50 (Progesterone receptor)

CCOC(=O)C(C)(C)Oc1ccc(Cl)cc1 [CLOFIBRATE]
Not Active: IC50 (Substance-K receptor) | IC50 (Cannabinoid receptor 1) | IC50 (Melanocortin receptor 3) | IC50 [1] | IC50 [2] | IC50 (Progesterone receptor)

CC(=O)OCC(=O)[C@@]1(O)CC[C@H]2[C@@H]3CCC4=CC(=O)CC[C@]4(C)[C@H]3C(=O)C[C@@]21C [CORTISONE ACETATE]
Not Active: IC50 (Substance-K receptor) | IC50 (Cannabinoid receptor 1) | IC50 (Melanocortin receptor 3) | IC50 [1] | IC50 [2] | IC50 (Progesterone receptor)

C/C=C/C[C@@H](C)[C@@H](O)[C@H]1C(=O)N[C@@H](CC)C(=O)N(C)CC(=O)N(C)[C@@H](CC(C)C)C(=O)N[C@@H](C(C)C)C(=O)N(C)[C@@H](CC(C)C)C(=O)N[C@@H](C)C(=O)N[C@H](C)C(=O)N(C)[C@@H](CC(C)C)C(=O)N(C)[C@@H](CC(C)C)C(=O)N(C)[C@@H](C(C)C)C(=O)N1C [CYCLOSPORINE]
Not Active: IC50 (Cannabinoid receptor 1) | IC50 (Melanocortin receptor 3) | IC50 [1] | IC50 [2] | IC50 (Progesterone receptor)

COc1ccc2cc([C@H](C)C(=O)O)ccc2c1 [NAPROXEN]
Not Active: IC50 (Substance-K receptor) | IC50 (Cannabinoid receptor 1) | IC50 (Melanocortin receptor 3) | IC50 [1] | IC50 (Progesterone receptor)

CCCCOc1ccc(OCCCN2CCOCC2)cc1 [PRAMOXINE]
Not Active: IC50 (Substance-K receptor) | IC50 (Cannabinoid receptor 1) | IC50 (Melanocortin receptor 3) | IC50 [1] | IC50 [2]

OC(CCN1CCCCC1)(c1ccccc1)C1CCCCC1 (configuration not stated) [TRIHEXYPHENIDYL]
Not Active: IC50 (Substance-K receptor) | IC50 (Cannabinoid receptor 1) | IC50 (Melanocortin receptor 3) | IC50 [2] | IC50 (Progesterone receptor)
